From patent US10646427B2, “Cosmetic compositions comprising spiculisporic acid and an ester of fatty acid and(poly)glycerol optionally polyoxyalkylenated” (L'OREAL, priority 2013, dated 2020) come the findings set out here.

Molecules are shown by their SMILES.

The assay relates to reconstructed Episkin J13 skin model. Nature of the assay: Episkin Peeling test (detachment of corneocytes measured by dosage of proteins). In kind it is cell-based. The following applies: for desquamating efficacy (detachment of corneocytes) compared to 30% glycolic acid reference: 10 min treatment. The protocol:
The Episkin Peeling test measures the detachment of corneocytes of the reconstructed Episkin J13 skin model. At this stage of maturation, the epidermis has a well differentiated stratum corneum (SC).
The sample is treated for 10 minutes with the control or test solution. The sample is taken and placed on the wall of a tube; its surface is then washed with a swab. The washing solution is filtered to preserve only the detached corneocytes. Their presence is measured by a dosage of proteins with the BCA Kit (PIERCE no. 23225).
The reference molecule is glycolic acid (AG). This is one of the compounds used in peeling at rates of occasionally up to 70%. It is applied for short times on the order of a few minutes and then neutralised.
The rate of 30% was used because it allows for good response dynamics with a short application time of 10 min.
Three Episkin batches are used for each study (n=3 per batch and per condition).
The evaluation of the raw materials (MP) is carried out by comparing the results of the MP to those obtained with 30% AG. The MP is effective if it reaches the level of the reference.
They were immersed in water. Spiculisporic acid was salified with potassium (KOH).
The dosage of free proteins, measured by DO, is to proportional to the quantity of corneocytes extracted, and thus to desquamation.

With `CCCCCCCCCCC(C(=O)O)C1(C(=O)O)CCC(=O)O1` (stereo not shown) [Spiculisporic acid K+, 4,5-dicarboxy-4-pentadecanolide], the “desquamating efficacy (detachment of corneocytes) compared to 30% glycolic acid reference” value (1% in water, salified with KOH) is reported as “no effect on the detachment of corneocytes” and the “desquamating efficacy (detachment of corneocytes) compared to 30% glycolic acid reference” value (1% in water, salified with KOH, listed as spiculisporic acid) is “absence of desquamation”.

In the case of `O=C(O)CC(O)(CC(=O)O)C(=O)O` [citric acid, Citric acid, reference compound], the “desquamating efficacy (detachment of corneocytes) compared to 30% glycolic acid reference” value is “does not reach the effect of the reference” (10% in water) and “reaches the efficacy level of the reference” (30% in water).

On to `CCCCCCCC(=O)OCC(O)CO` (stereo not shown) [GMCY, Glyceryl caprylate], for which the “desquamating efficacy (detachment of corneocytes) compared to 30% glycolic acid reference” value is, setting by setting: (5% in water) “desquamating efficacy (almost) reaching that of the glycolic acid reference at 30%”; (5% in water, listed as glyceryl caprylate) “positive, but not significant, desquamation relative to the positive control”.

As for `O=C(O)CO` [AG, glycolic acid, reference compound], the “detachment of corneocytes measured by dosage of proteins (FIG. 1)” value (10%, 30% and 50%) is “dose-dependent effect”.
